From ChEMBL document CHEMBL5338717, “Discovery of novel PDE4 inhibitors targeting the M-pocket from natural mangostanin with improved safety for the treatment of Inflammatory Bowel Diseases” (Eur J Med Chem, 2022)
Active and inactive are the calls of the source. The calls are words filed in the database; no cut-off is given here.

Tests used:
Mus musculus [1] = assay: Anti-inflammatory bowel disease activity in DSS-induced inflammatory bowel disease C57BL/6 mouse model assessed as decrease in body weight loss by measuring disease activity index score at 5 mg/kg, iv BID and measured upto 8 days; format: functional, organism-based; details: time <= 8.0 day
[2] = Selectivity index, ratio of IC50 for inhibition of recombinant PDE9A2 (181 to 506 residues) (unknown origin) expressed in Escherichia coli BL21 to IC50 for inhibition of recombinant PDE4D2 (86 to 413 residues) (unknown origin) expressed in Escherichia coli BL21
[3] = Volume of distribution at steady state in Sprague-Dawley rat at 2.5 mg/kg, iv; format: ADME, organism-based; details: in vivo, read-out: Vdss
[4] = molecular target: High affinity cGMP-specific 3',5'-cyclic phosphodiesterase 9A (Homo sapiens, UniProt O76083); assay: Inhibition of recombinant PDE9A2 (181 to 506 residues) (unknown origin) expressed in Escherichia coli BL21 using [3H]cGMP as substrate incubated for 15 mins by liquid scintillation method
[5] = Toxicity in twelve hrs fasted Beagle dog assessed as emesis at 10 mg/kg,po and measured upto 180 mins; format: organism-based, Canis lupus familiaris; details: in vivo, 3 h
Mus musculus [6] = assay: Anti-inflammatory bowel disease activity in DSS-induced inflammatory bowel disease C57BL/6 mouse assessed as decrease in neutrophil infiltration in colon at 5 mg/kg, iv BID and measured after 8 days by Haematoxylin and eosin staining based microscopy; format: functional, organism-based; details: time 8.0 day
Mus musculus [7] = assay: Anti-inflammatory bowel disease activity in DSS-induced inflammatory bowel disease C57BL/6 mouse model assessed as decrease in diarrhoea by measuring disease activity index score at 5 mg/kg, iv BID and measured upto 8 days; format: functional, organism-based; details: time <= 8.0 day
[8] = AUC(0 to 24 hrs) in Sprague-Dawley rat at 2.5 mg/kg, iv; format: ADME, organism-based; set-up: dose 2.5 mg/kg, route iv; details: in vivo
[9] = Selectivity index, ratio of IC50 for inhibition of recombinant PDE1C (147 to 531 residues) (unknown origin) expressed in Escherichia coli BL21 to IC50 for inhibition of recombinant PDE4D2 (86 to 413 residues) (unknown origin) expressed in Escherichia coli BL21
Mus musculus [10] = assay: Anti-inflammatory bowel disease activity in DSS-induced inflammatory bowel disease C57BL/6 mouse model assessed as decrease in mucosal ulceration in colon at 5 mg/kg, iv BID and measured after 8 days by Haematoxylin and eosin staining based microscopy; format: functional, organism-based; details: time 8.0 day
[11] = molecular target: cGMP-dependent 3',5'-cyclic phosphodiesterase (Homo sapiens, UniProt O00408); assay: Inhibition of recombinant PDE2A (580 to 919 residues) (unknown origin) expressed in Escherichia coli BL21 using [3H]cGMP as substrate incubated for 15 mins by liquid scintillation method
Cytochrome P450 3A4 = Cytochrome P450 3A4 (Homo sapiens, UniProt P08684); assay: Inhibition of human CYP3A4 in human hepatocytes; format: ADME, cell-based, Hepatocyte
Cytochrome P450 2D6 = Cytochrome P450 2D6 (Homo sapiens, UniProt P10635); assay: Inhibition of human CYP2D6 in human hepatocytes; format: ADME, cell-based, Hepatocyte
[12] = Selectivity index, ratio of IC50 for inhibition of recombinant PDE2A (580 to 919 residues) (unknown origin) expressed in Escherichia coli BL21 to IC50 for inhibition of recombinant PDE4D2 (86 to 413 residues) (unknown origin) expressed in Escherichia coli BL21
[13] = Clearance in Sprague-Dawley rat at 2.5 mg/kg, iv; format: ADME, organism-based; details: in vivo
Mus musculus [14] = assay: Anti-inflammatory bowel disease activity in DSS-induced inflammatory bowel disease C57BL/6 mouse model assessed as increase in colon length at 5 mg/kg, iv BID and measured upto 8 days; format: functional, organism-based; details: time <= 8.0 day
[15] = Acute toxicity in mouse assessed as body weight change at 0.75 g/Kg,po; details: in vivo, 750 mg/kg
Mus musculus [16] = assay: Anti-inflammatory bowel disease activity in DSS-induced inflammatory bowel disease C57BL/6 mouse model assessed as increase in body weight at 5 mg/kg, iv BID and measured after 8 days […]; format: functional, organism-based; details: time 8.0 day
[17] = Selectivity index, ratio of IC50 for inhibition of PDE7A1 (130 to 482 residues) (unknown origin) expressed in Escherichia coli BL21 to IC50 for inhibition of recombinant PDE4D2 (86 to 413 residues) (unknown origin) expressed in Escherichia coli BL21
[18] = Selectivity index, ratio of IC50 for inhibition of recombinant PDE4B2 (152 to 487 residues) (unknown origin) expressed in Escherichia coli BL21 to IC50 for inhibition of recombinant PDE4D2 (86 to 413 residues) (unknown origin) expressed in Escherichia coli BL21
[19] = molecular target: cGMP-specific 3',5'-cyclic phosphodiesterase (Homo sapiens, UniProt O76074); assay: Inhibition of recombinant PDE5A1 (535 to 860 residues) (unknown origin) expressed in Escherichia coli BL21 using [3H]cGMP as substrate incubated for 15 mins by liquid scintillation method
Cytochrome P450 2B6 = molecular target: T1, Cytochrome P450 2B6 (Homo sapiens, UniProt P20813); assay: Inhibition of human CYP2B6 in human hepatocytes; format: ADME, cell-based, Hepatocyte
T1 sequence (P20813 whole entry): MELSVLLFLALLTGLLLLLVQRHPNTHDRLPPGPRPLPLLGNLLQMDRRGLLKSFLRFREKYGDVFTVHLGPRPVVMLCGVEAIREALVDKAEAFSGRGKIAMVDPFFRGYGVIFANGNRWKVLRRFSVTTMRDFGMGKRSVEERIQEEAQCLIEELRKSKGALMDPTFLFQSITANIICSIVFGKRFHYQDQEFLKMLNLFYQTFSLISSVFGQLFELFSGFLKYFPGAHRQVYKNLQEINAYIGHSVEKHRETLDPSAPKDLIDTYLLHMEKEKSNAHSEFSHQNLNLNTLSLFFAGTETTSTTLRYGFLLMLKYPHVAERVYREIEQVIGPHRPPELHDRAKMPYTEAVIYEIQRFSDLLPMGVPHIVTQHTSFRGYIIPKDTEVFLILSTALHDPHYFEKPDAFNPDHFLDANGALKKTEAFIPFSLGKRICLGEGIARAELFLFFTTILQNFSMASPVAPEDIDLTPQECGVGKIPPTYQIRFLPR

Mus musculus [20] = assay: Anti-inflammatory bowel disease activity in DSS-induced inflammatory bowel disease C57BL/6 mouse model assessed as decrease in rectal bleeding by measuring disease activity index score at 5 mg/kg, iv BID and measured upto 8 days by Haem-occult test; format: functional, organism-based; details: time <= 8.0 day
Mus musculus [21] = assay: Anti-inflammatory bowel disease activity in DSS-induced inflammatory bowel disease C57BL/6 mouse model assessed as decrease in IL-6 mRNA expression level in colon at 5 mg/kg, iv BID and measured after 8 days by real-time PCR analysis; format: functional, organism-based; details: time 8.0 day
[22] = molecular target: 3',5'-cyclic-AMP phosphodiesterase 4D (Homo sapiens, UniProt Q08499); assay: Inhibition of recombinant PDE4D2 (86 to 413 residues) (unknown origin) expressed in Escherichia coli BL21 using [3H]cAMP as substrate incubated for 15 mins by liquid scintillation method
[23] = molecular target: 3',5'-cyclic-AMP phosphodiesterase 4B (Homo sapiens, UniProt Q07343); assay: Inhibition of recombinant PDE4B2 (152 to 487 residues) (unknown origin) expressed in Escherichia coli BL21 using [3H]cAMP as substrate incubated for 15 mins by liquid scintillation method
Sequence of 3',5'-cyclic-AMP phosphodiesterase 4B (Q07343 whole entry, the tested form may be a part): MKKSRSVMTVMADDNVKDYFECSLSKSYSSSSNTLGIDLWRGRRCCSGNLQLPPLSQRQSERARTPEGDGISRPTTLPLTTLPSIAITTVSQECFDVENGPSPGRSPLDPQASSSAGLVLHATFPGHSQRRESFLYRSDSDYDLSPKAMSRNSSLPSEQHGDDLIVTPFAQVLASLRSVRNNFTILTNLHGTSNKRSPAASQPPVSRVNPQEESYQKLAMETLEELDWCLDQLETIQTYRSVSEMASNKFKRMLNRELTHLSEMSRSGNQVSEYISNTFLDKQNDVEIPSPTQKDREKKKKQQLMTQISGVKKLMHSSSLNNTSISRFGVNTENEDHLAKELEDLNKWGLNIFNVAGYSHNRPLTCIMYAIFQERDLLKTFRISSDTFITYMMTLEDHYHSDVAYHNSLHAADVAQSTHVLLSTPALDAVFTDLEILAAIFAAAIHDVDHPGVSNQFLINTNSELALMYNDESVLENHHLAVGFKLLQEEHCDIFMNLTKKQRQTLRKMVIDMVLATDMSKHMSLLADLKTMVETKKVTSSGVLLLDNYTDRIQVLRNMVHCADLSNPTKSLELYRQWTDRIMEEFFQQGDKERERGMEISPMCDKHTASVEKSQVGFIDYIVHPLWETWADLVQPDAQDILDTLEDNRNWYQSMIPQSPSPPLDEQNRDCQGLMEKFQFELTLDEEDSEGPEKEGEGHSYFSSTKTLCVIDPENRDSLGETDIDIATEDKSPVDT

Sequence of Cytochrome P450 2D6 (P10635 whole entry, the tested form may be a part): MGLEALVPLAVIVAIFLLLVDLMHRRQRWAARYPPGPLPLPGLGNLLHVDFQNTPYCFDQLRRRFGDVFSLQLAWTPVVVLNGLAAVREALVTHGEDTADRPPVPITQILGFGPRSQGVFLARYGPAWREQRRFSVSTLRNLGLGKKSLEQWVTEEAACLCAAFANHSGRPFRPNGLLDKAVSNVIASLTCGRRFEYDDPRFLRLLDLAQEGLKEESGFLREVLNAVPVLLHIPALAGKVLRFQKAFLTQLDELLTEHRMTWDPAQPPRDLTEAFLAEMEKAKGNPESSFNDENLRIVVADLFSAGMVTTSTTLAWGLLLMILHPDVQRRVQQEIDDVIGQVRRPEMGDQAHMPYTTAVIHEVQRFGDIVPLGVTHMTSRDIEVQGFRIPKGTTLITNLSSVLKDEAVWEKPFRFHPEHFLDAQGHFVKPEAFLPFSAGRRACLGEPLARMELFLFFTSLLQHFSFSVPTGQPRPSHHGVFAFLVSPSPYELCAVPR
Sequence of High affinity cGMP-specific 3',5'-cyclic phosphodiesterase 9A (O76083 whole entry, the tested form may be a part): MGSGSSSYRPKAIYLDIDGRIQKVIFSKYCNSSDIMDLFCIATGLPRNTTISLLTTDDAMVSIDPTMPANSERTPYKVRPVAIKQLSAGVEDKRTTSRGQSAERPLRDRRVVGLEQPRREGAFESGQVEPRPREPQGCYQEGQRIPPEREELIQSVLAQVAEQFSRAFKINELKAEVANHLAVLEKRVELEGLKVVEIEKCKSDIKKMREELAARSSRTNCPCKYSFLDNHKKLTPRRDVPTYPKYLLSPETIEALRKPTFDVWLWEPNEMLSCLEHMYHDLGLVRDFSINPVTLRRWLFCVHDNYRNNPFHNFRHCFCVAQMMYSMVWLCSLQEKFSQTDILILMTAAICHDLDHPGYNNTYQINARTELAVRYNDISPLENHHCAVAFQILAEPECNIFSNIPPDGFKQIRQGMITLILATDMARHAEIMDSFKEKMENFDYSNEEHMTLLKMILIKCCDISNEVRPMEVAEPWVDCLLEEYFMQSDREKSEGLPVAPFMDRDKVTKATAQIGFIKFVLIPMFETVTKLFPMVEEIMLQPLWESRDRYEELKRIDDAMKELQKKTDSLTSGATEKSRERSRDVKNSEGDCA
Sequence of 3',5'-cyclic-AMP phosphodiesterase 4D (Q08499 whole entry, the tested form may be a part): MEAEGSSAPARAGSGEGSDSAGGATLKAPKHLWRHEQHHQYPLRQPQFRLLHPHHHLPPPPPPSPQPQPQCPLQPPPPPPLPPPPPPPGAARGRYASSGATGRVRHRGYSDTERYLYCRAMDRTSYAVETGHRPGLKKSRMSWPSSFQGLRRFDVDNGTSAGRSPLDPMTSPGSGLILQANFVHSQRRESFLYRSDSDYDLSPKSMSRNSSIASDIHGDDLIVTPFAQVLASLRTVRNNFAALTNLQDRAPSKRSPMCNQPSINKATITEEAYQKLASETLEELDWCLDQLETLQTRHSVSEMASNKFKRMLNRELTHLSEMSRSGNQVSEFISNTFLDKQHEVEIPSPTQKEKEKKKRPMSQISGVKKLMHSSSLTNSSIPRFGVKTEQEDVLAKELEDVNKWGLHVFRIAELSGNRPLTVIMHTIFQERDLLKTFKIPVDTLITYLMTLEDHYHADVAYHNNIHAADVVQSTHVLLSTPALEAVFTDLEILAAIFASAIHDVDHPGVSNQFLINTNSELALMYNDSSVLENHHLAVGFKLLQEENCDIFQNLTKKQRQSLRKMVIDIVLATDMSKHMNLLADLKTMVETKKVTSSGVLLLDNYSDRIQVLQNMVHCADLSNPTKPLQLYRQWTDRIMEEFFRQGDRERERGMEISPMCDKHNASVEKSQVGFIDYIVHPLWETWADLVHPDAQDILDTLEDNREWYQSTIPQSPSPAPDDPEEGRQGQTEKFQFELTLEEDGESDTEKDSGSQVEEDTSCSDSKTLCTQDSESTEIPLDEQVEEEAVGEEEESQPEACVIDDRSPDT
Sequence of cGMP-dependent 3',5'-cyclic phosphodiesterase (O00408 whole entry, the tested form may be a part): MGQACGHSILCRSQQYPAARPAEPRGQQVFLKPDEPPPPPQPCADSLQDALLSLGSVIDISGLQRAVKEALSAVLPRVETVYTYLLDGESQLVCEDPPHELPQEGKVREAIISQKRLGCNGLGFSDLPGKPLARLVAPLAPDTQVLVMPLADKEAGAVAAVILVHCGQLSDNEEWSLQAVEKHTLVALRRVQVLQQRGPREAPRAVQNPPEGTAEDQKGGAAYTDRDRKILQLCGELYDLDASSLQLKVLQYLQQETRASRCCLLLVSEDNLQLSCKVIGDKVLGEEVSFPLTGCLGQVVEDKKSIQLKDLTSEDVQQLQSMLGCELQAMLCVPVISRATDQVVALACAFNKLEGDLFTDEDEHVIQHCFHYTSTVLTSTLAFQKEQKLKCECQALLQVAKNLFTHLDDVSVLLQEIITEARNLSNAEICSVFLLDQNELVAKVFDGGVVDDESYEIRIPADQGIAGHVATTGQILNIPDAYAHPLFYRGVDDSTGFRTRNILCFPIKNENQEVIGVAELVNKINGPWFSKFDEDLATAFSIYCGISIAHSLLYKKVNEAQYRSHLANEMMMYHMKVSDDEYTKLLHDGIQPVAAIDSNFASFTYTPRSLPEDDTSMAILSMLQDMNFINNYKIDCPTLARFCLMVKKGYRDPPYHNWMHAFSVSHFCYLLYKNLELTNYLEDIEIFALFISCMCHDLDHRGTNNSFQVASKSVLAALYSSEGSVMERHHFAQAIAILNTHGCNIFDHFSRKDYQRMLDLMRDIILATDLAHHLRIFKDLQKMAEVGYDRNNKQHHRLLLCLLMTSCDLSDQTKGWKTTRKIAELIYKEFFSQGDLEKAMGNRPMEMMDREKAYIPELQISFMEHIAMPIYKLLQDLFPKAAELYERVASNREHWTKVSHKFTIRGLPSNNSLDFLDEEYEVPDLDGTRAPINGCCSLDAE
Sequence of Cytochrome P450 3A4 (P08684 whole entry): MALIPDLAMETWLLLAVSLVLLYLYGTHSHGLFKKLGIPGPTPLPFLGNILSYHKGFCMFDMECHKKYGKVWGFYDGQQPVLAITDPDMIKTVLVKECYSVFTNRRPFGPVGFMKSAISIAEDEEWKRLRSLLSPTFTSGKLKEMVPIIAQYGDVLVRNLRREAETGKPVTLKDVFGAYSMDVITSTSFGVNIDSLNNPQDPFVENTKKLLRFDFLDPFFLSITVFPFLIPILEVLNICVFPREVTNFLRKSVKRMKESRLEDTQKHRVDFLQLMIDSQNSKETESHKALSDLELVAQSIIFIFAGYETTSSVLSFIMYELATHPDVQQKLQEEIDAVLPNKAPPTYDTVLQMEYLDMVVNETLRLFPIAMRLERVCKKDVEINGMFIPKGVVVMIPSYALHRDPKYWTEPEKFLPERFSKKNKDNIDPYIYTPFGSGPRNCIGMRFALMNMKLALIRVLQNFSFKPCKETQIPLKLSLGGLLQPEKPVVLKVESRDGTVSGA

COc1c(OCC2CC2)cc2oc3cc4c(c(OCc5ccncc5)c3c(=O)c2c1CC=C(C)C)C=CC(C)(C)O4
Activity (Mus musculus [1]): Active | Ratio IC50 [2]: > 2800 | Vd [3]: 0.673 L/kg | IC50 [4]: > 10 µM | Activity [5]: Non-Toxic | Activity (Mus musculus [6]): Active | Activity (Mus musculus [7]): Active | AUC(0-t) [8]: 6520 ng·h/mL | Ratio IC50 [9]: > 2800 | Activity (Mus musculus [10]): Active | IC50 [11]: > 10 µM | IC50 (Cytochrome P450 3A4): 6.1 µM | IC50 (Cytochrome P450 2D6): > 25 µM | Ratio IC50 [12]: > 2800 | clearance [13]: 6.4 mL/min/kg | Activity (Mus musculus [14]): Active | Activity [15]: Non-Toxic | Activity (Mus musculus [16]): Active | Ratio IC50 [17]: 4.27 | Ratio IC50 [18]: 2.71 | IC50 [19]: 1.24 µM | IC50 (Cytochrome P450 2B6): > 25 µM | Activity (Mus musculus [20]): Active | Activity (Mus musculus [21]): Active | IC50 [22]: 0.0035 µM | IC50 [23]: 0.00951 µM
